Converted amounts (≈) assume the structure as drawn. Positions of bridges follow the written chain, without caps; N, C: chain ends. Non-standard residues stand in square brackets, D forms with d. Residues, ends and D or L forms follow the SMILES beside them. *: point of attachment. Octanoyl(7-Me) = CC(C)CCCCCC(=O)*; aThr = C[C@H](O)[C@H](N)C(=O)O; dOrn = NCCC[C@@H](N)C(=O)O; Orn = NCCC[C@H](N)C(=O)O
Columns and labels:
[1] = tested on: E. coli ATCC 25922; assay: Neutropenic mouse thigh infection model; type: in vivo, Escherichia coli; conditions: brevicidine 30 mg/kg or laterocidine 15 mg/kg, 2 times, after 26 h
Description: In vivo activities of brevicidine and laterocidine were tested using the mouse thigh infection model. Animal studies were performed by Pharmacology Discovery Services Taiwan Ltd. (Taipei, Taiwan) in general accordance with standard guidelines on animal welfare in an AAALAC-accredited facility. The protocol was reviewed and approved by the Institutional Animal Care and Use Committee. Groups of five female specific-pathogen-free ICR (CD-1) mice weighing 22±2 g (˜5 weeks of age) were used. Animals were immunosuppressed with two intraperitoneal injections of cyclophosphamide, the first at 150 mg/kg 4 d before infection (day −4) and the second at 100 mg/kg 1 d before infection (day −1). On day 0, animals were inoculated intramuscularly (0.1 ml/thigh) in the right thigh with an E. coli ATCC 25922 suspension. Vehicle (10% DMSO, 1% Tween 80, 0.9% NaCl) and antibiotics were then subcutaneously injected 2 h and 8 h later. Due to limited amount of compounds 1-2, only one concentration of 1(30 mg/kg) or 2 (15 mg/kg) was used in this study. At 26 h after inoculation, animals were euthanized by CO2 asphyxiation before the muscle of the right thigh was harvested from each test animal. The removed muscle was homogenized in 5 mL of PBS, pH 7.4, with a polytron homogenizer. Homogenates in the amount of 0.1 mL were used for serial tenfold dilutions and plated onto a nutrient agar medium for colony count (c.f.u./g) determination.

[2] = tested on: Escherichia coli ATCC 25922; assay: Resistance acquisition during serial passaging; type: cell-based; conditions: serial passaging at subinhibitory concentrations over 30 days
Description: Escherichia coli ATCC 25922 was inoculated into MHB overnight at 37° C. with continuous shaking. Cells were diluted 10,000 times in MHB to about 1×10^6 c.f.u./mL. […] Plates with bacteria were incubated at 37° C. without shaking. […] This process was repeated for 30 d, and the final MIC was confirmed by the same antibacterial assay described above. The experiment was performed in quadruplicate, and on each day, the sample that developed the highest resistance was measured to plot the curve.

[3] = tested on: E. coli Top10; assay: Bacterial growth kinetics; type: cell-based, Escherichia coli; conditions: E. coli cells exposed to compound
Description: A fresh single colony of E. coli Top10 was inoculated into MHB (5 mL) and grown with shaking at 225 rpm overnight. The bacteria were diluted to 1×10^5 c.f.u./mL in fresh MHB, grown […] to early log-phase (OD=0.15) and treated with the antibiotics of interest in the wells of a 96-well plate. Final antibiotic concentrations varied from 1×MIC to 8×MIC. The plate was then incubated at 30° C. overnight, with OD 600 measurements taken every 30 seconds.

[4] = tested on: E. cloacae NRRL-B-425; type: cell-based, Enterobacter cloacae; conditions: NRRL-B-425
Description: (§1) Minimum inhibitory concentration (MIC) was determined by broth microdilution according to CLSI guidelines. The test medium for most species was Mueller-Hinton broth (MHB). Bacteria were grown overnight to early stationary phase and adjusted in MHB to 5.0×10^5 colony-forming units per mL (c.f.u./mL) in the wells of 96-well microtiter plates, mixed with varying concentrations of test compounds and incubated at 37° C. for 24 h. […] MHBs containing 10% fetal bovine serum (Gibco), 21 mM MgCl, or 1.0 mg/ml LPS (lipopolysaccharides from Escherichia coli O55:B5, Sigma-Aldrich) were used to test their inhibitory effects.

[5] = tested on: P. aeruginosa PAO1; assay: Atomic force microscopy of treated P. aeruginosa; type: cell-based, Pseudomonas aeruginosa
Description: (§2) The samples were then centrifuged at 8000 g for 10 min at 4° C., and the pellet was washed twice in 100 lpL of apyrogenic water. The bacteria resuspended in 50 μL of apyrogenic water were applied to mica disks and dried overnight at 28° C. before imaging. Atomic force micrographs were recorded on a Veeco Mulitmode AFM with NanoScope III controller operating in contact mode. The data were analyzed with NanoScope Analysis software v.1.40 (Veeco, USA). Scans were acquired at 25° C. at the rates of 1.0 Hz and 256 samples per line resolution. Downstream image processing and analysis were performed using NanoScope software (Bruker). Height images were flattened to compensate for cell curvature, and topographical sections were used to generate two-dimensional reconstructions of surface texture.

[6] = tested on: Escherichia coli ATCC 25922; assay: microbe, parasite or virus in culture; type: cell-based; conditions: ATCC 25922
Description: as §1

[7] = tested on: E. coli Top10; assay: Time-kill assay; type: cell-based, Escherichia coli
Description: An overnight culture of E. coli Top10 or Pseudomonas aeruginosa PAO1 cells was diluted 1:10,000 in MHB and incubated at 37° C. with agitation at 180 rpm for 2 h (early exponential). The bacteria were then challenged with antibiotics at 10×MIC, brevicidine (20 μg/ml), laterocidine (20 μg/ml) or polymyxin B (10 μg/ml) at room temperature without shaking. An untreated sample of cells was used as a negative control. At intervals, 10 μL aliquots were removed, centrifuged at 10,000 g for 1 min and resuspended in 1.0 mL of sterile PBS. Tenfold-serially-diluted suspensions were plated on MHB agar plates and incubated at 37° C. overnight. Colonies were counted and the number of c.fu. per mL was calculated. For analysis of lysis, 300 μL of culture (OD600=1.0) were treated with 10×MIC of antibiotics for 24 h. Experiments were performed in triplicate.

[8] = tested on: E. coli ATCC 25922; assay: Atomic force microscopy of treated E. coli; type: cell-based, Escherichia coli; conditions: E. coli ATCC25922, 10×MIC
Description: as §2

[9] = tested on: K. pneumoniae NRRL-B-3521; type: cell-based, Klebsiella pneumoniae; conditions: NRRL-B-3521
Description: as §1

[10] = tested on: Methicillin-resistant Staphylococcus aureus ATCC 43300; type: cell-based
Description: as §1

[11] = tested on: Bacillus subtilis 168; type: cell-based; conditions: 168
Description: as §1

[12] = tested on: Candida albicans; type: cell-based
Description: as §1

[13] = tested on: Pseudomonas aeruginosa PAO1; type: cell-based; conditions: PAO1
Description: as §1

[14] = tested on: Klebsiella pneumoniae NRRL-B-408; type: cell-based; conditions: NRRL-B-408
Description: as §1

[15] = tested on: Enterobacter cloacae NRRL-B-413; type: cell-based; conditions: NRRL-B-413
Description: as §1

[16] = tested on: Acinetobacter baumannii; type: cell-based
Description: as §1

[17] = tested on: E. coli Top10; type: cell-based, Escherichia coli; conditions: Top10
Description: as §1

[18] = tested on: Colistin-resistant E. coli (E. coli ATCC 25922 carrying mcr-1); type: cell-based, Escherichia coli
Description: as §1

[19] = tested on: Saccharomyces cerevisiae VL-48; assay: MIC, Saccharomyces cerevisiae; type: cell-based
Description: as §1

## CC[C@H](C)[C@@H]1NC(=O)[C@@H](NC(=O)[C@H](Cc2c[nH]c3ccccc23)NC(=O)[C@@H](CCCN)NC(=O)CNC(=O)[C@H](CCCN)NC(=O)[C@@H](CCCN)NC(=O)[C@@H](Cc2c[nH]c3ccccc23)NC(=O)[C@@H](Cc2ccc(O)cc2)NC(=O)[C@@H](CO)NC(=O)CCCCCC(C)C)[C@H](C)OC(=O)CNC(=O)CNC(=O)[C@H](CC(N)=O)NC1=O [Compound 2, 7-Methyl-Octanoyl-D-Ser-D-Tyr-D-Trp-D-Orn-Orn-Gly-D-Orn-Trp-Thr-Ile-Asn-Gly-Gly (cyclized via lactone formation between Thr and the C-terminus)] ({Octanoyl(7-Me)}-[dS][dY][dW][dOrn][Orn]G[dOrn]W[aThr]INGG; ester 9-C)
[1]
  bactericidal efficacy in mouse thigh infection (viable bacteria): reduced numbers of viable bacteria
[2]
  development of resistance: development of resistance was not observed
[3]
  time of growth at a reduced rate before steady decrease in cell count: 30 min
[4]
  MIC: 3 µg/mL (≈ 1.87 µM)
[5]
  cell morphology by AFM: lost their regular rod-like shape and became lumpy and rugged
[6]
  MIC: 2 µg/mL (≈ 1.25 µM)
  MIC Ec: 2 µg/mL (≈ 1.25 µM)
[7]; 10 times the MIC
  time of exposure to significant reduction of viable cells: 30 min
  time of exposure to slightly reduced cell viability: 15 min
[7]; growth kinetics, time-kill assay and lysis assay
  bactericidal against E. coli: bactericidal
[8]
  cell morphology by AFM: lost their regular rod-like shape and became lumpy and rugged
[9]
  MIC: 4 µg/mL (≈ 2.49 µM)
[10]; ATCC 43300
  MIC: >64 µg/mL
[10]; Table 2, Methicillin-resistant Staphylococcus aureus ATCC 43300
  MIC MRSA: ND (ND >64 μg/ml)
[11]
  MIC: 32 µg/mL (≈ 19.9 µM)
  MIC Bs: 32 µg/mL (≈ 19.9 µM)
[12]
  MIC: >64 µg/mL
[12]; Table 2, Candida albicans
  MIC Ca: ND (ND >64 μg/ml)
[13]
  MIC: 2 µg/mL (≈ 1.25 µM)
  MIC Pa: 2 µg/mL (≈ 1.25 µM)
[14]
  MIC: 4 µg/mL (≈ 2.49 µM)
[15]
  MIC: 2 µg/mL (≈ 1.25 µM)
  MIC En: 2 µg/mL (≈ 1.25 µM)
[16]
  MIC: 4 µg/mL (≈ 2.49 µM)
  MIC Ab: 4 µg/mL (≈ 2.49 µM)
[17]
  MIC: 2 µg/mL (≈ 1.25 µM)
[18]
  MIC: 2 µg/mL (≈ 1.25 µM)
[19]; Saccharomyces cerevisiae
  MIC: >64 µg/mL
[19]; Table 2, Saccharomyces cerevisiae VL-48
  MIC Sc: ND (ND >64 μg/ml)

From US10738093B2, “Discovery of cationic nonribosomal peptides as Gram-negative antibiotics through global genome mining” (The Hong Kong University of Science and Technology, priority 2018, dated 2020)
